Results taken from patent US20250340538A1, “IMIDAZOLONE DERIVATIVES AS INHIBITORS OF PROTEIN KINASES IN PARTICULAR DYRK1A, CLK1 AND/OR CLK4” (PERHA PHARMACEUTICALS, priority 2021, published 2025).
Where two headings read alike, the source gives them in different places.

Experiments:
CLK1 = molecular target: T1, CLK1 (Homo sapiens, UniProt P49759); test: Radiometric protein kinase assay (33PanQinase Activity Assay), CLK1; format: biochemical; details: read-out: Potency Class CLK1
T1 construct: GST-fusion or His-tag (not specified per kinase); purchased ProQinase GmbH; host or cells: Sf9 insect cells or E. coli (not specified per kinase)
Protocol: Assays were performed by ProQinase GmbH (Engesserstr. 4, D-79108 Freiburg, Germany. www.proqinase.com). The IC50 profile of all compounds was determined using 12 protein kinases (CDK2/cyclin E, CK1ε, CLK1, 2, 3, 4, DYRK1A, 1B, 2, 3, 4, GSK3β).
(§1) The compounds were provided as […] in 100% DMSO. Prior to testing, the 1 μM stock solutions were subjected to a serial, semi-logarithmic dilution using 100% DMSO as a solvent. […] In the process, 90 μl H2O were added to each well of each compound dilution plate. To minimize potential precipitation, the H2O was added to each plate only a few minutes before the transfer of the compound solutions into the assay plates. The plate was shaken thoroughly, resulting in a compound dilution plate/10% DMSO.
(§2) For the assays (see below), 5 μL solution from each well of the compound dilution plates/10% DMSO were transferred into the assay plates. The final volume of the assay was 50 μL. All compounds were tested at 10 final assay concentrations in the range from 10 μM to 30 nM. The final DMSO concentration in the reaction cocktails was 1% in all cases.
(§3) All protein kinases provided by ProQinase were expressed in Sf9 insect cells or in E. coli as recombinant GST-fusion proteins or His-tagged proteins, either as full-length or enzymatically active fragments. All kinases were produced from human cDNAs and purified by either GSH-affinity chromatography or immobilized metal. Affinity tags were removed from a number of kinases during purification. The purity of the protein kinases was examined by SDS-PAGE/Coomassie staining, the identity was checked by mass spectroscopy.
(§4) A radiometric protein kinase assay (33PanQinase® Activity Assay) was used for measuring the kinase activity of the 12 protein kinases. All kinase assays were performed in 96-well FlashPlates™ from PerkinElmer (Boston, MA, USA) in a 50 μL reaction volume. The reaction cocktail was pipetted in four steps in the following order: • 25 μL of assay buffer (standard buffer/[γ-^33P]-ATP), • 10 μL of ATP solution (in H2O), • 5 μL of test compound (in 10% DMSO), • 10 μL of enzyme/substrate mixture.
(§5) The reaction cocktails were incubated at 30° C. for 60 minutes. The reaction was stopped with 50 μL of 2% (v/v) H3PO4, plates were aspirated and washed two times with 200 μL 0.9% (w/v) NaCl. Incorporation of ^33Pi was determined with a microplate scintillation counter (Microbeta, Wallac). The IC50 values for all compounds were calculated from the dose response curves
As a parameter for assay quality, the Z′-factor (Zhang et al., J. Biomol. Screen. 2: 67-73, 1999) for the low and high controls of each assay plate (n=8) was used. ProQinase's criterion for repetition of an assay plate is a Z′-factor below 0.4 (Iversen et al., J. Biomol. Screen. 3: 247-252, 2006).

DYRK1A = molecular target: T2, DYRK1A (Homo sapiens, UniProt Q13627); test: Radiometric protein kinase assay (33PanQinase Activity Assay), DYRK1A; format: biochemical; details: for Selectivity Class DYRK1A vs. CLK1: ratio of IC50 on CLK1 over IC50 on DYRK1A; for Selectivity Class DYRK1A vs. DYRK1B: ratio of IC50 on DYRK1B over IC50 on DYRK1A
T2 construct: GST-fusion or His-tag (not specified per kinase); purchased ProQinase GmbH; host or cells: Sf9 insect cells or E. coli (not specified per kinase)
Protocol: The IC50 profile of all compounds was determined using 12 protein kinases (CDK2/cyclin E, CK1ε, CLK1, 2, 3, 4, DYRK1A, 1B, 2, 3, 4, GSK3β).
as §1, §2, §3, §4, §5

[1] = class by IC50 on CLK1, from dose-response curves
[2] = class by IC50 on DYRK1A, from dose-response curves, read-out: Potency Class DYRK1A

T1 sequence (P49759 whole entry, the tested form may be a part): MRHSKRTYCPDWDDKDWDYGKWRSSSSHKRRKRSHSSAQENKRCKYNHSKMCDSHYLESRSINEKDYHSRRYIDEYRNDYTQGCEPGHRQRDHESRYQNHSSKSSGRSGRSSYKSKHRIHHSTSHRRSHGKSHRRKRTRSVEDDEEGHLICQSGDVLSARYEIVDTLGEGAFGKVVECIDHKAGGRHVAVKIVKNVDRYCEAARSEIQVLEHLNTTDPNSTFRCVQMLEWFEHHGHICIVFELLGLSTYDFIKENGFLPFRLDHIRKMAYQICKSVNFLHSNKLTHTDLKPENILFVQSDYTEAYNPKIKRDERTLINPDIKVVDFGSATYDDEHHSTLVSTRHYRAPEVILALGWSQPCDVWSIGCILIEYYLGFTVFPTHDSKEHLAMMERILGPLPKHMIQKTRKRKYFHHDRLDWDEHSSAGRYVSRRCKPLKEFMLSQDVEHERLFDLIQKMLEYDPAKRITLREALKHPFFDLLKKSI

SMILES	IC50 (CLK1; [1])	IC50 (DYRK1A; [2])	Selectivity Class DYRK1A vs. CLK1 (DYRK1A)	Selectivity Class DYRK1A vs. DYRK1B (DYRK1A)	IC50 (CLK1; IC50 class A to E)	IC50 (DYRK1A; IC50 class A to E, read-out: Potency Class DYRK1A)	IC50 (DYRK1A; read-out: IC50 on DYRK1A (most potent DYRK1A inhibitors))
CO[C@@H]1CCC[C@@H](NC2=N/C(=C\c3ccc4nccnc4c3)C(=O)N2)CC1 (racemic) [Compound 7, (+)-(4Z)-2-[[trans-4-methoxycycloheptyl]amino]-4-(quinoxalin-6-ylmethylene)-1H-imidazol-5-one]	> 0.05 µM	> 0.05 µM	II (ratio between 2 and 10 fold)	II (ratio between 2 and 10 fold)			
CO[C@H]1CCCC[C@@H](NC2=N/C(=C\c3ccc4nccnc4c3)C(=O)N2)C1 (racemic) [Compound 8, (+)-(4Z)-2-[[cis-3-methoxycycloheptyl]amino]-4-(quinoxalin-6-ylmethylene)-1H-imidazol-5-one]	> 0.05 µM						
CC1(C)CCC(NC2=N/C(=C\c3ccc4nccnc4c3)C(=O)N2)CO1 (racemic) [Compound 36, (±)-(4Z)-2-[(6,6-dimethyltetrahydropyran-3-yl)amino]-4-(quinoxalin-6-ylmethylene)-1H-imidazol-5-one]	> 0.05 µM	> 0.05 µM	II (ratio between 2 and 10 fold)	II (ratio between 2 and 10 fold)			
O=C1NC(NC2CCCCCC2)=N/C1=C\c1ccc2nccnc2c1 [Compound 1, (4Z)-2-(cycloheptylamino)-4-(quinoxalin-6-ylmethylene)-1H-imidazol-5-one]	> 0.05 µM						
O=C1NC(NC2CCCCCCC2)=N/C1=C\c1ccc2nccnc2c1 [Compound 2, (4Z)-2-(cyclooctylamino)-4-(quinoxalin-6-ylmethylene)-1H-imidazol-5-one]	> 0.05 µM						
CO[C@@H]1CCC[C@H]1NC1=N/C(=C\c2ccc3nccnc3c2)C(=O)N1 [Compound 4, (4Z)-2-[[(1R,2R)-2-methoxycyclopentyl]amino]-4-(quinoxalin-6-ylmethylene)-1H-imidazol-5-one]	> 0.05 µM	> 0.05 µM	II (ratio between 2 and 10 fold)	II (ratio between 2 and 10 fold)			
COC[C@@H](CC(C)C)NC1=N/C(=C\c2ccc3nccnc3c2)C(=O)N1 [Compound 10, (4Z)-2-[[(1R)-1-(methoxymethyl)-3-methyl-butyl]amino]-4-(quinoxalin-6-ylmethylene)-1H-imidazol-5-one]	> 0.05 µM						
CCOC[C@@H](CC(C)C)NC1=N/C(=C\c2ccc3nccnc3c2)C(=O)N1 [Compound 11, (4Z)-2-[[(1R)-1-(ethoxymethyl)-3-methyl-butyl]amino]-4-(quinoxalin-6-ylmethylene)-1H-imidazol-5-one]	> 0.05 µM	0.01 to 0.025 µM	I (ratio of IC50 on CLK1 or DYRK1B over IC50 on DYRK1A ≥10 fold (most DYRK1A-selective compounds))	II (ratio between 2 and 10 fold)			
CC(C)C[C@H](COCc1ccccc1)NC1=N/C(=C\c2ccc3nccnc3c2)C(=O)N1 [Compound 12, (4Z)-2-[[(1R)-1-(benzyloxymethyl)-3-methyl-butyl]amino]-4-(quinoxalin-6-ylmethylene)-1H-imidazol-5-one]	> 0.05 µM	> 0.05 µM	I (ratio of IC50 on CLK1 or DYRK1B over IC50 on DYRK1A ≥10 fold (most DYRK1A-selective compounds))	II (ratio between 2 and 10 fold)			
CC(C)C[C@@H](CF)NC1=N/C(=C\c2ccc3nccnc3c2)C(=O)N1 [Compound 15, (4Z)-2-[[(1S)-1-(Fluoromethyl)-3-methyl-butyl]amino]-4-(quinoxalin-6-ylmethylene)-1H-imidazol-5-one]	> 0.05 µM	> 0.05 µM	III (ratio between 0.5 and 2 fold)	III (ratio between 0.5 and 2 fold)			
O=C1NC(NCc2ccccc2)=N/C1=C\c1ccc2nccnc2c1 [Compound 21]	> 0.05 µM	> 0.05 µM	III (ratio between 0.5 and 2 fold)	II (ratio between 2 and 10 fold)			
O=C1NC(NC2CCCCC2)=N/C1=C\c1ccc2nccnc2c1 [Compound 74, (4Z)-2-(Cyclohexylamino)-4-(quinoxalin-6-ylmethylene)-1H-imidazol-5-one]	> 0.05 µM						

Next, values leading:

IC50 (CLK1; [1])	IC50 (DYRK1A; [2])	Selectivity Class DYRK1A vs. CLK1 (DYRK1A)	Selectivity Class DYRK1A vs. DYRK1B (DYRK1A)	IC50 (CLK1; IC50 class A to E)	IC50 (DYRK1A; IC50 class A to E, read-out: Potency Class DYRK1A)	IC50 (DYRK1A; read-out: IC50 on DYRK1A (most potent DYRK1A inhibitors))	SMILES
> 0.05 µM							O=C1NC(N[C@@H]2CCC[C@@H](O)CC2)=N/C1=C\c1ccc2nccnc2c1 (racemic) [Compound 6, (±)-(4Z)-2-[[trans-4-hydroxycycloheptyl]amino]-4-(quinoxalin-6-ylmethylene)-1H-imidazol-5-one]
> 0.05 µM	> 0.05 µM	III (ratio between 0.5 and 2 fold)	II (ratio between 2 and 10 fold)				O=C1NC(NC2CCCCOC2)=N/C1=C\c1ccc2nccnc2c1 (racemic) [Compound 41, (4Z)-2-(Oxepan-3-ylamino)-4-(quinoxalin-6-ylmethylene)-1H-imidazol-5-one]
> 0.05 µM	> 0.05 µM	III (ratio between 0.5 and 2 fold)	II (ratio between 2 and 10 fold)				O=C1NC(NCC2CCCCC2)=N/C1=C\c1ccc2nccnc2c1 [Compound 3, (4Z)-2-(cyclohexylmethylamino)-4-(quinoxalin-6-ylmethylene)-1H-imidazol-5-one]
> 0.05 µM	> 0.05 µM	III (ratio between 0.5 and 2 fold)	II (ratio between 2 and 10 fold)				CO[C@H]1CCC[C@@H]1NC1=N/C(=C\c2ccc3nccnc3c2)C(=O)N1 [Compound 5, (4Z)-2-[[(1S,2S)-2-Methoxycyclopentyl]amino]-4-(quinoxalin-6-ylmethylene)-1H-imidazol-5-one]
0.025 to 0.05 µM	0.005 to 0.01 µM	II (ratio between 2 and 10 fold)	II (ratio between 2 and 10 fold)	0.025 to 0.05 µM	0.005 to 0.01 µM	≤ 0.01 µM	CC(C)C[C@H](CO)NC1=N/C(=C\c2ccc3nccnc3c2)C(=O)N1 [Compound 9, (4Z)-2-[[(1R)-1-(hydroxymethyl)-3-methyl-butyl]amino]-4-(quinoxalin-6-ylmethylene)-1H-imidazol-5-one]
> 0.05 µM							CC(C)C[C@H](COCc1ccc(F)cc1)NC1=N/C(=C\c2ccc3nccnc3c2)C(=O)N1 [Compound 13, (4Z)-2-[[(1R)-1-[(4-fluorophenyl)methoxymethyl]-3-methyl-butyl]amino]-4-(quinoxalin-6-ylmethylene)-1H-imidazol-5-one]
> 0.05 µM	0.01 to 0.025 µM	II (ratio between 2 and 10 fold)	II (ratio between 2 and 10 fold)				CC(C)C[C@H](CF)NC1=N/C(=C\c2ccc3nccnc3c2)C(=O)N1 [Compound 14, (4Z)-2-[[(1R)-1-(fluoromethyl)-3-methyl-butyl]amino]-4-(quinoxalin-6-ylmethylene)-1H-imidazol-5-one]
0.025 to 0.05 µM							O=C1NC(N[C@@H](CO)c2ccccc2)=N/C1=C\c1ccc2nccnc2c1 [Compound 24, (4Z)-2-[[(1R)-2-hydroxy-1-phenyl-ethyl]amino]-4-(quinoxalin-6-ylmethylene)-1H-imidazol-5-one]
> 0.05 µM							O=C1NC(N[C@H](CO)c2ccccc2)=N/C1=C\c1ccc2nccnc2c1 [Compound 25, (4Z)-2-[[(1S)-2-Hydroxy-1-phenyl-ethyl]amino]-4-(quinoxalin-6-ylmethylene)-1H-imidazol-5-one]
